{"source": "paper PMC10314922", "about": "“Fluorescence lifetime FRET assay for live-cell high-throughput screening of the cardiac SERCA pump yields multiple classes of small-molecule allosteric modulators” (Scientific Reports, 2023)", "key": {"SERCA2a [1]": {"target": "T1, SERCA2a (Sus scrofa, UniProt P11607)", "T1 construct": "Cardiac SR vesicles were isolated from fresh porcine left ventricular tissue using differential centrifugation; from tissue; host or cells: porcine left ventricular tissue (cardiac SR vesicles)", "T1 sequence (P11607 1-997 isoform P11607-2)": "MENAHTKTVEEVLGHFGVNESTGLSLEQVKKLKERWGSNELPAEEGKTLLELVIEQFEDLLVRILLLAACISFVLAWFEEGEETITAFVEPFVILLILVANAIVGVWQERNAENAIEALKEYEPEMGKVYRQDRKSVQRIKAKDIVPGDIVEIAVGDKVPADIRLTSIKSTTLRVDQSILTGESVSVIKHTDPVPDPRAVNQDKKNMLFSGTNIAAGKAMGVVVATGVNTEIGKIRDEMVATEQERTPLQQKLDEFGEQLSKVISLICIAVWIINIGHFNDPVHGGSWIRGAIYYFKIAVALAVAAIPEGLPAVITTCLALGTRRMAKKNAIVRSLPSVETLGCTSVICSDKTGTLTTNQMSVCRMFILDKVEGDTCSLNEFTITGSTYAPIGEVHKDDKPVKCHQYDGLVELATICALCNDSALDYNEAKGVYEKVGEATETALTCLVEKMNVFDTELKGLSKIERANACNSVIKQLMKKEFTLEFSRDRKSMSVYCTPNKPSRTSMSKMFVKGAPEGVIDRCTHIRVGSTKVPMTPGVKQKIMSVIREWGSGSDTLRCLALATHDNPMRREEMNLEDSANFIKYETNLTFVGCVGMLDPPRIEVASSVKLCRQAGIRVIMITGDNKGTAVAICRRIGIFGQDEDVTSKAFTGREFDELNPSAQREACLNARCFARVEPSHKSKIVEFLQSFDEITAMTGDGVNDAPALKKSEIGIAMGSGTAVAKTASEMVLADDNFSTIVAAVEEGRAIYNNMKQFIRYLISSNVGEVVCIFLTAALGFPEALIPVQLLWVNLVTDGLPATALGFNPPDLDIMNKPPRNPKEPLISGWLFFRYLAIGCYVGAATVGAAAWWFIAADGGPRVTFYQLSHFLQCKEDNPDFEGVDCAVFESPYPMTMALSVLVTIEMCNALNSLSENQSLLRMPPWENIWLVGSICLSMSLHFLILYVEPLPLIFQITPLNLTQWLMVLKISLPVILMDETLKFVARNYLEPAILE", "assay": "Oxalate-supported Fluo-4 Ca2+-uptake (Ca2+-transport) assay in pig cardiac SR (pCSR) vesicles", "type": "biochemical", "conditions": "for CR (coupling ratio) VU/VA: maximum Ca2+-uptake rate / Ca2+-ATPase rate at [Ca2+]MAX, DMSO control = 0.66; for Ca2+-Uptake C10: concentration yielding 10% effect", "description": "(§1) Cardiac SR vesicles were isolated from fresh porcine left ventricular tissue using differential centrifugation of the homogenized tissue as previously described. The SR vesicles were flash-frozen and stored at − 80 °C until needed. The SERCA concentration in the ER preparations purified from HEK cell homogenate is at least 10 times less than in purified porcine cardiac SR[20], but there was sufficient expression of the fluorescent SERCA2a biosensor in HEK cells to detect FRET with high precision by FLT[22],[23],[26].\nCa^2+-transport assays were performed with similar porcine SR samples as in the Ca^2+-ATPase assays described above. The compound effect on the Ca^2+-transport activity of SERCA2a was determined using an oxalate-supported assay in which the change in fluorescence in a Ca^2+-sensitive dye, Fluor-4, was determined as previously described. A buffered solution containing 50 mM MOPS (pH 7.0), 100 mM KCl, 30 mg/mL sucrose, 1 mM EGTA, 10 mM potassium oxalate, 2 µM Fluo-4, 30 µg/mL porcine cardiac SR vesicles, CaCl2 calculated to reach the free [Ca^2+] (pCa 8.0, 6.2, and 5.4), and compound (0.048 to 50 μM) was dispensed into 384-well black walled, transparent bottomed plates (Greiner Bio-One) containing the tested small molecule and incubated at 22℃ for 20 min while covered and protected from light. To start the reaction, MgATP was added to a final concentration of 5 mM, and the decrease in 485-nm excited fluorescence of Fluo-4 was monitored at 520 nm for 15 min using a FLIPR Tetra (Molecular Devices, San Jose, CA).\n(§2) SERCA2a activity, F (rate of ATP hydrolysis or Ca^2+ uptake), was measured at varying pCa and varying compound concentration. F measured at [Ca^2+]MAX (saturating, pCa 5.4) or [Ca^2+]MID (subsaturating, midpoint, pCa 6.2) was corrected by subtracting the basal rate at pCa 8.0) and the % effect due to compound was reported. Concentration response curves (CRC) were fitted using the Hill function to determine VMAX (the activity at saturating [compound]), and EC50, the compound concentration at 50% effect."}, "SERCA2a [2]": {"target": "T1, SERCA2a", "assay": "NADH-linked Ca2+-ATPase activity assay in pig cardiac SR (pCSR) vesicles", "type": "biochemical", "conditions": "for Ca2+-ATPase C10: concentration yielding 10% effect", "description": "as §1\nFunctional assays were performed using porcine cardiac SR (pCSR) vesicles. An enzyme-coupled, NADH-linked ATPase assay was used to measure SERCA ATPase activity in 384-well microplates. Each well contained 50 mM MOPS (pH 7.0), 100 mM KCl, 1 mM EGTA, 0.2 mM NADH, 1 mM phosphoenol pyruvate, 10 IU/mL of pyruvate kinase, 10 IU/mL of lactate dehydrogenase, 7 µM of the calcium ionophore A23187 (Sigma), and CaCl2 was added to set free [Ca^2+] to three different concentrations. Ca^2+-ATPase activity was measured at three [Ca^2+]: [Ca^2+]MAX (saturating, pCa 5.4), [Ca^2+]MID (subsaturating, midpoint, pCa 6.2), and [Ca^2+]BAS (basal non-activating, pCa 8.0). 10 μg/mL of SR vesicle, calcium, compound (0.048 to 50 μM), and assay mix were incubated for 20 min at room temperature before measurement of functional assays with each of the 18 hit compounds, because a shorter incubation time than the FRET live-cell assays achieved optimal responses. The assay was started upon the addition of MgATP, at a final concentration of 5 mM (total volume to 80 μL), and absorbance was read at 340 nm in a SpectraMax Plus^384 microplate spectrophotometer (Molecular Devices, Sunnyvale, CA).\nas §2"}, "[3]": {"target": "T2, human two-color SERCA2a (2CS) biosensor (Homo sapiens, UniProt P16615, INS508[…])", "T2 construct": "expressed in transfected cells", "T2 sequence (P16615 other isoform, or with tags, fused parts or gaps with the stated changes)": "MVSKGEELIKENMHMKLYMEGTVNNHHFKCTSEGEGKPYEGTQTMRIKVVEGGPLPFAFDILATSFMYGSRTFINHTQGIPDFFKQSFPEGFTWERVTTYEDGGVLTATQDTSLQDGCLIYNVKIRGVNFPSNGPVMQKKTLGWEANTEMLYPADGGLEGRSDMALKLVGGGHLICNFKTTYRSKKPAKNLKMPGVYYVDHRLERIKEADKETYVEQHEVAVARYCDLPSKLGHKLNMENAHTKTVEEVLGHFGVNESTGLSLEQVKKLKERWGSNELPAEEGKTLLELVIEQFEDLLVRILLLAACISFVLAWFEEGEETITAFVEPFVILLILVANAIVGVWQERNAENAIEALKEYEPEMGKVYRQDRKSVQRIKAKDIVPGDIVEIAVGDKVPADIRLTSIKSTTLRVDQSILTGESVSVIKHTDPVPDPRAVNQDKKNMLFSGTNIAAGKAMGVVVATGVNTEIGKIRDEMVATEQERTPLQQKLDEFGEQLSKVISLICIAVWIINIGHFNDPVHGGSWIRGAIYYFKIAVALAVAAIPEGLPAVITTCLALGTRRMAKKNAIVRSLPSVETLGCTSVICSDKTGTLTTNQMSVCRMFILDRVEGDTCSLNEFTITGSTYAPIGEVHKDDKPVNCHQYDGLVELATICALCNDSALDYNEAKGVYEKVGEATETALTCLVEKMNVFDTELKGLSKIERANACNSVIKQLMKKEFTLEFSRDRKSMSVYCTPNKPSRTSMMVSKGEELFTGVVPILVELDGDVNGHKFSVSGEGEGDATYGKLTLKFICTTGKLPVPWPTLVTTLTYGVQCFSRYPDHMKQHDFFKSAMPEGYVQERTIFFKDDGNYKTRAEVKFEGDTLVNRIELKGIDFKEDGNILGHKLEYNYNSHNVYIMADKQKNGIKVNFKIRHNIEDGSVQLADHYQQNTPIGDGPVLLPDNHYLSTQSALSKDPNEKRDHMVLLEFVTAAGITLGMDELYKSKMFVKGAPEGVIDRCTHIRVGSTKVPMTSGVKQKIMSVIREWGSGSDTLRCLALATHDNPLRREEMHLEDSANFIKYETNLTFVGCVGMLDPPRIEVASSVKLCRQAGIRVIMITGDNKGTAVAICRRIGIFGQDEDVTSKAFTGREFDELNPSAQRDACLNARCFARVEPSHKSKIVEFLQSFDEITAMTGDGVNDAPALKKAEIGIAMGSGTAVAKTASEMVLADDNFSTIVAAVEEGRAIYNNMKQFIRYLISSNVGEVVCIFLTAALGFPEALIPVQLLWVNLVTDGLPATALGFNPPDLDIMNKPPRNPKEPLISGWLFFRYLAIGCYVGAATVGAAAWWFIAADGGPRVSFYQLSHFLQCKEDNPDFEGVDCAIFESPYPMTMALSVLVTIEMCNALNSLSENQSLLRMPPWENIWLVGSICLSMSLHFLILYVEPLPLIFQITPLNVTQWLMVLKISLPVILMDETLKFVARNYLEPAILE", "assay": "FRET concentration response curves (FLT-FRET) with the 2CS biosensor in live HEK cells", "type": "cell-based", "description": "A two-color intramolecular human SERCA2a (2CS) biosensor, based on human cardiac SERCA2a fused to green fluorescent protein (eGFP) and red fluorescent protein (tagRFP) was developed to detect structural changes that are related to the functional changes of SERCA[20],[22],[25]. Briefly, tagRFP was genetically fused to the N-terminus of SERCA (A-domain) and eGFP was inserted as an intrasequence tag before residue 509 in the nucleotide-binding domain (N-domain)[60],[61]. Donor-only and acceptor-only (1CS) biosensors were created in a similar manner as the 2CS biosensor but with the construct containing either only eGFP or only tag-RFP, respectively. […] A null-biosensor construct consisting of eGFP and tagRFP connected by a 32-residue unstructured flexible linker peptide (G32R) was created as described previously[23],[25]. All constructs were cloned into expression vectors containing the genes for antibiotic resistance to G418, puromycin, or blasticidin.\nStable cell lines were generated using either human embryonic kidney (HEK) HEK293 (ATCC, Manassas, VA) or HEK293-6E (National Research Council, Canada) cells. Briefly, cells were transiently transfected with 2CS, 1CS, or G32R null-biosensor plasmids using Lipofecatime 3000 or 293fectin (Thermo Fisher Scientific). Flow cytometry was used to select and enrich for the population of cells expressing respective biosensors. Stable HEK293 cell lines were maintained in phenol red-free DMEM media (Gibco, Waltham, MA) supplemented with 2 mM GlutaMAX (Gibco, Waltham, MA), 10% fetal bovine serum (FBS) (Atlanta Biologicals, Lawrenceville, GA), 1 IU/mL penicillin/streptomycin (Gibco, Waltham, MA), and 250 μg/mL G418 (Fisher Scientific). Stable HEK293-6E cell lines were maintained in F17 media (Sigma Aldrich) supplemented with Kolliphor p188 (Sigma Aldrich, St. Louis, MO), […] GlutaMAX, and either 1 μg/mL puromycin (Invitrogen, Carlsbad, CA) or 2 μg/mL blasticidin (Goldbio) as a selection antibiotic. All cell lines were grown at 37 °C with 5% CO2.\nFRET CRC assay plates (0.78–100 μM compound range) with at least ten different compound concentrations were made by adding the appropriate volume of compound or DMSO into black 384 well plates (Greiner Bio-One) using a Mosquito HV (SPTLabTech, United Kingdom). Subsequent Ca^2+-ATPase activity and Ca^2+-transport CRC assay plates (0–50 μM compound range) with repurchased compounds were made in a similar manner using with the Echo 550 (Beckman Coulter) using either 384 well transparent plates (Greiner Bio-One) or black-walled plates with transparent bottoms (Greiner Bio-One), respectively.\nOn each day of screening, cells were harvested, washed three times with PBS, and centrifuged at 300 g for 5 min. Cells were filtered using a 70 µm cell strainer and diluted to 1–2 × 10^6 cells/mL. Cell concentration and viability were assessed using the Cell countess (Invitrogen) and trypan blue assay. During assays, cells were constantly and gently stirred using a magnetic stir bar at room temperature, keeping the cells in suspension and evenly distributed to avoid clumping. HEK 293-cells expressing 2CS were dispensed at 5 μL or […] per well into assay plates (dispensed into 40 assay plates, each containing 1536 wells) pre-plated with compounds (from a DIVERset 50,000 compound library) using a Multdrop Combi liquid dispenser (Thermo Fisher Scientific, Pittsburg, PA) and sealed until needed. Because the kinetics of membrane permeability, diffusion, and/or binding of the compound to live cells may be compound-dependent, we tested two incubation times, 20 min and 120 min, for the FRET CRC. […] Plates containing eight-point concentration curves of three tool compounds (known SERCA effectors thapsigargin, BHQ, and CPA)[22] were used as positive controls for biosensor function and performance prior to running the full-scale FRET-HTS assay. […]"}, "[4]": {"conditions": "[Ca2+]MAX (pCa5.4), maximal compound effect vs DMSO control, pCSR"}, "[5]": {"conditions": "[Ca2+]MID (pCa6.2), maximal compound effect vs DMSO control, pCSR"}, "[6]": {"conditions": "activators, categories activate / uncouple / inhibit"}}, "note": "Values joined by “and” are separate entries in the source; they are usually repeats but may differ in a detail not shown here. Equal values may be shown once. “Also recorded” adds a separate entry of the source.", "data": [{"smiles": "CC1Cc2cc(CNC(=O)c3cc(C(C)C)nn3C)ccc2O1", "note": "(centres unmarked) [Compound 9, 3-isopropyl-1-methyl-N-[(2-methyl-2,3-dihydro-1-benzofuran-5-yl)methyl]-1H-pyrazole-5-carboxamide]", "values": [{"measurement": "Ca2+-Uptake ΔFMAX", "setting": "SERCA2a [1]; [4]", "result": "5 ± 2.2", "unit": "%"}, {"measurement": "Ca2+-Uptake ΔFMID", "setting": "SERCA2a [1]; [5]", "result": "3 ± 2.4", "unit": "%"}, {"measurement": "Effect on Ca2+-uptake (category, Fig. 4A)", "setting": "SERCA2a [1]; [6]", "result": "uncouple"}, {"measurement": "CR (coupling ratio) VU/VA", "setting": "SERCA2a [1]", "result": 0.51}, {"measurement": "Increase in Ca2+-uptake", "setting": "SERCA2a [1]; over [Ca2+]MAX and [Ca2+]MID", "result": "3–5% and 0.5–10%"}, {"measurement": "EC50", "setting": "SERCA2a [2]; [Ca2+]MAX (pCa5.4)", "result": "24 ± 9", "unit": "µM"}, {"measurement": "Ca2+-ATPase C10", "setting": "SERCA2a [2]; [Ca2+]MAX (pCa5.4)", "result": 30.7, "unit": "µM"}, {"measurement": "Ca2+-ATPase ΔFMAX", "setting": "SERCA2a [2]; [4]", "result": "21% and 21 ± 5%"}, {"measurement": "Ca2+-ATPase ΔFMID", "setting": "SERCA2a [2]; [5]", "result": "10% and 10 ± 6%"}, {"measurement": "Effect on Ca2+-ATPase activity (category, Fig. 4A)", "setting": "SERCA2a [2]; [6]", "result": "activate"}, {"measurement": "EC50", "setting": "[3]", "result": "0.6 ± 0.1", "unit": "µM"}]}, {"smiles": "COc1ccc(Cn2cc(C(=O)N(C)Cc3ccnc4ccccc34)nn2)cc1", "note": "[Compound 10, 1-(4-methoxybenzyl)-N-methyl-N-(4-quinolinylmethyl)-1H-1,2,3-triazole-4-carboxamide]", "values": [{"measurement": "Ca2+-Uptake C10", "setting": "SERCA2a [1]; [Ca2+]MAX (pCa5.4)", "result": 4.1, "unit": "µM"}, {"measurement": "Ca2+-Uptake C10", "setting": "SERCA2a [1]; [Ca2+]MID (pCa6.2)", "result": 7.9, "unit": "µM"}, {"measurement": "CR (coupling ratio) VU/VA", "setting": "SERCA2a [1]", "result": 0.35}, {"measurement": "Inhibition of Ca2+-uptake (class)", "setting": "SERCA2a [1]; strong / moderate / mild", "result": "Mild → M; also recorded: mild-to-moderate"}, {"measurement": "Ca2+-ATPase C10", "setting": "SERCA2a [2]; [Ca2+]MAX (pCa5.4)", "result": 7, "unit": "µM"}, {"measurement": "Ca2+-ATPase C10", "setting": "SERCA2a [2]; [Ca2+]MID (pCa6.2)", "result": 3.2, "unit": "µM"}, {"measurement": "EC50", "setting": "[3]", "result": "5.6 ± 0.6", "unit": "µM"}]}, {"smiles": "COC(=O)CSc1ncc(-c2ccc(F)cc2)c(C2CCCN(C(=O)c3cccc(F)c3)C2)n1", "note": "(centres unmarked) [Compound 11, methyl {[4-[1-(3-fluorobenzoyl)-3-piperidinyl]-5-(4-fluorophenyl)-2-pyrimidinyl]thio}acetate]", "values": [{"measurement": "EC50", "setting": "SERCA2a [1]; [Ca2+]MAX (pCa5.4)", "result": "1.8 ± 0.04", "unit": "µM"}, {"measurement": "Ca2+-Uptake C10", "setting": "SERCA2a [1]; [Ca2+]MAX (pCa5.4)", "result": 0.2, "unit": "µM"}, {"measurement": "EC50", "setting": "SERCA2a [1]; [Ca2+]MID (pCa6.2)", "result": "2.8 ± 0.1", "unit": "µM"}, {"measurement": "Ca2+-Uptake C10", "setting": "SERCA2a [1]; [Ca2+]MID (pCa6.2)", "result": 0.5, "unit": "µM"}, {"measurement": "CR (coupling ratio) VU/VA", "setting": "SERCA2a [1]", "result": 0.13}, {"measurement": "EC50", "setting": "SERCA2a [2]; [Ca2+]MAX (pCa5.4)", "result": "3.2 ± 0.4", "unit": "µM"}, {"measurement": "Ca2+-ATPase C10", "setting": "SERCA2a [2]; [Ca2+]MAX (pCa5.4)", "result": 0.8, "unit": "µM"}, {"measurement": "EC50", "setting": "SERCA2a [2]; [Ca2+]MID (pCa6.2)", "result": "3.6 ± 0.5", "unit": "µM"}, {"measurement": "Ca2+-ATPase C10", "setting": "SERCA2a [2]; [Ca2+]MID (pCa6.2)", "result": 1.2, "unit": "µM"}, {"measurement": "EC50", "setting": "[3]", "result": "14 ± 6.4", "unit": "µM"}]}, {"smiles": "OCC1(CCOc2ccccc2)CCCN(Cc2cc3c(cc2Cl)OCO3)C1", "note": "(centres unmarked) [Compound 13, [1-[(6-chloro-1,3-benzodioxol-5-yl)methyl]-3-(2-phenoxyethyl)-3-piperidinyl]methanol]", "values": [{"measurement": "EC50", "setting": "SERCA2a [1]; [Ca2+]MAX (pCa5.4)", "result": "3.6 ± 0.1", "unit": "µM"}, {"measurement": "Ca2+-Uptake C10", "setting": "SERCA2a [1]; [Ca2+]MAX (pCa5.4)", "result": 0.5, "unit": "µM"}, {"measurement": "EC50", "setting": "SERCA2a [1]; [Ca2+]MID (pCa6.2)", "result": "6.4 ± 0.2", "unit": "µM"}, {"measurement": "Ca2+-Uptake C10", "setting": "SERCA2a [1]; [Ca2+]MID (pCa6.2)", "result": 1.0, "unit": "µM"}, {"measurement": "Ca2+-ATPase C10", "setting": "SERCA2a [2]; [Ca2+]MAX (pCa5.4)", "result": 1, "unit": "µM"}, {"measurement": "Ca2+-ATPase C10", "setting": "SERCA2a [2]; [Ca2+]MID (pCa6.2)", "result": 1.6, "unit": "µM"}, {"measurement": "EC50", "setting": "[3]", "result": "9.9 ± 2.1", "unit": "µM"}]}]}
